Data from article PMC2363166, “Water-soluble aluminium phthalocyanine–polymer conjugates for PDT: photodynamic activities and pharmacokinetics in tumour-bearing mice” (British Journal of Cancer, 1999).

Assays:
[1] = system: EMT-6 mouse mammary tumour cells; test: Cellular photoinactivation, MTT cell survival after red light; format: cell-based; details: 1% FBS, red light 660-700 nm
Excerpt: Among the second-generation photosensitizers (PS) developed for the treatment of neoplastic diseases by photodynamic therapy (PDT) (Kessel, 1996; Ochsner, 1997), metallo-phthalocyanines (MePc) have been proposed (Spikes, 1986; van Lier, 1990; Rosenthal, 1991) as an alternative to Photofrin (PII), the only PS currently approved for clinical use. Their stronger absorption in the red part of the spectrum (molar extinction coefficient, […] at 675 nm), where the depth of light penetration in tissues is twice that obtained at 630 nm with PII (Svaasand, 1984), together with their chemical homogeneity and their lower potential to induce cutaneous photosensitivity (Roberts et al, 1989; Tralau et al, 1989) are major advantages over PII. […] The potential of the water-soluble aluminium sulphophthalocyanine (AlPcS) to generate activated oxygen species (Sharman et al, 1999) and to induce a photo- dynamic response in vivo has been widely evaluated, and a mixture of AlPcS bearing 2-4 sulphonato groups per Pc (Photosense) is used extensively and successfully in clinical PDT in Russia (Zharkova et al, 1994). […] Their photodynamic activities were evaluated in vitro against the EMT-6 mouse mammary tumour cells and in vivo against the EMT-6 and the colon carcinoma Colo-26 tumours implanted intradermally in Balb/c mice. […]

[2] = Biodistribution and plasma clearance after i.v. injection in EMT-6 tumour-bearing mice; format: in vivo
Excerpt: (§1) Among the second-generation photosensitizers (PS) developed for the treatment of neoplastic diseases by photodynamic therapy (PDT) (Kessel, 1996; Ochsner, 1997), metallo-phthalocyanines (MePc) have been proposed (Spikes, 1986; van Lier, 1990; Rosenthal, 1991) as an alternative to Photofrin (PII), the only PS currently approved for clinical use. Their stronger absorption in the red part of the spectrum (molar extinction coefficient, […] at 675 nm), where the depth of light penetration in tissues is twice that obtained at 630 nm with PII (Svaasand, 1984), together with their chemical homogeneity and their lower potential to induce cutaneous photosensitivity (Roberts et al, 1989; Tralau et al, 1989) are major advantages over PII. Unsubstituted MePc are not soluble in physiological solvents and their in vivo administration relies upon their incorporation into carriers, such as the liposomal formulation of ZnPc (Isele et al, 1995), or their chemical conversion into water-soluble dyes by the attachment of selected substituents onto the benzene rings of the macrocycle. An inverse relationship was related between the degree of substitution by sulphonato groups of MePc and their hydrophobicity and photodynamic activities, both at the cellular level and in tumour-bearing mice (Brasseur et al, 1987, 1988; Paquette et al, 1988; Berg et al, 1989; Chan et al, 1990, 1991; Margaron et al, 1996a). The potential of the water-soluble aluminium sulphophthalocyanine (AlPcS) to generate activated oxygen species (Sharman et al, 1999) and to induce a photo- dynamic response in vivo has been widely evaluated, and a mixture of AlPcS bearing 2-4 sulphonato groups per Pc (Photosense) is used extensively and successfully in clinical PDT in Russia (Zharkova et al, 1994). […] The unsubstituted AlClPc has, however, attracted less attention even though it has been shown that this compound formulated as a Cremophor emulsion was preferentially retained by a gliosarcoma and was able to induce tumour necrosis in this model (Dereski et al, 1994). […] However, Cremophor oil is known to induce unwanted side-effects in patients (Dye and Watkins, Water-soluble aluminium phthalocyaninepolymer conjugates for PDT: photodynamic activities and pharmacokinetics in tumour-bearing mice N Brasseur, R Ouellet, C La Madeleine and JE van Lier MRC Group in the Radiation Sciences, Faculty of Medicine, Universite de Sherbrooke, Sherbrooke, Quebec, J1H 5N4, Canada Summary The potential use of unsubstituted aluminium phthalocyanine (AlClPc) as a sensitizer for photodynamic therapy (PDT) of cancer has not been fully exploited in spite of its higher efficiency as compared to the sulphonated derivatives. This is largely due to the strong hydrophobic character of AlClPc which renders the material difficult to formulate for in vivo administration. We prepared two water-soluble derivatives of AlClPc by axial coordination of polyethyleneglycol (PEG, MW 2000) or polyvinylalcohol (PVA, MW 13 000-23 000) to the central aluminium ion. Their photodynamic activities were evaluated in vitro against the EMT-6 mouse mammary tumour cells and in vivo against the EMT-6 and the colon carcinoma Colo-26 tumours implanted intradermally in Balb/c mice. Pharmacokinetics were studied in the EMT-6 tumour-bearing mice. […] All three dye preparations induced complete EMT-6 tumour regression in 75-100% of animals at a low drug dose ([…] ) following PDT (400 J cm-2 , 650-700 nm) at 24 h pi. Complete tumour regression in the Colo-26 tumour model was obtained in 30% of mice at a dose of […] . In the non-cured animals, AlPc-PVA induced the most significant tumour growth delay. […] Moreover, in the case of the polyvinylalcohol derivative, axial coordination confers advantageous pharmacokinetics to AlPc, which makes this photosensitizer a valuable, water soluble candidate drug for clinical PDT of cancer. […]

Colo-26 tumour = test: Photodynamic therapy of the Colo-26 tumour implanted i.d. in Balb/c mice; format: in vivo; parameters: Oedema observed 24 h after PDT: key to the marks not given beside the values
Excerpt: as §1

EMT-6 tumour = details: 0.25 μmol kg-1 i.v., PDT 24 h p.i., 400 J cm-2, ref Chan et al (1997); cited from earlier work
[3] = 6 h after i.v. 2 μmol kg-1, n = 4
[4] = 24 h after i.v. 2 μmol kg-1, n = 4
[5] = 48 h after i.v. 2 μmol kg-1, n = 4
[6] = 168 h after i.v. 2 μmol kg-1, n = 4
[7] = Colo-26 tumour, 2 μmol kg-1 i.v., PDT 24 h p.i., 400 J cm-2

[Cl][Al]1[n]2c3c4ccccc4c2N=C2N=C(N=c4c5ccccc5c([n]41)=NC1=NC(=N3)c3ccccc31)c1ccccc12 [AlClPc, aluminium phthalocyanine]
light dose required to kill 90% of cells (LD90) ([1]; 1 h incubation, 10 mW cm-2, max 36 J cm-2): 13.5 J cm-2 | light dose required to kill 90% of cells (LD90) ([1]; 24 h incubation, 10 mW cm-2): 4.5 J cm-2 | retention by the liver ([2]; 1-week pi, i.v. 2 μmol kg-1): 73% | Tumour-to-plasma ratio [2, 3]: 0.4 | Tumour-to-skin ratio [2, 3]: 3.5 | Tumour-to-tumour skin ratio [2, 3]: 1.0 | Tumour-to-muscle ratio [2, 4]: 16.9 | Tumour-to-plasma ratio [2, 4]: >> | Tumour-to-skin ratio [2, 4]: 5.3 | Tumour-to-tumour skin ratio [2, 4]: 1.0 | Tumour-to-muscle ratio [2, 5]: 19.5 | Tumour-to-plasma ratio [2, 5]: >> | Tumour-to-skin ratio [2, 5]: 3.3 | Tumour-to-tumour skin ratio [2, 5]: 0.7 | Tumour-to-muscle ratio [2, 6]: >> | Tumour-to-plasma ratio [2, 6]: >> | Tumour-to-skin ratio [2, 6]: 2.0 | Tumour-to-tumour skin ratio [2, 6]: 0.9 | plasma half-life ([2]; i.v. 2 μmol kg-1, EMT-6 tumour-bearing mice): 2.6 h | damage to leg muscle (Colo-26 tumour; 2 μmol kg-1, PDT 24 h p.i.): did not induce damage to leg muscle | tumour regrowth delay relative to controls (Colo-26 tumour; Colo-26 tumour, 2 μmol kg-1, non-cured mice): 1.5 times that of the controls | Tumour response, Regression (flat and necrotic within 3-5 days after PDT) (Colo-26 tumour; Colo-26 tumour, 2 μmol kg-1 i.v., PDT 24 h p.i., 200 mW cm-2, 400 J cm-2): 80 % of mice | Oedema observed 24 h after PDT (Colo-26 tumour; [7]): ++ | Tumour response, Cure (complete tumour regression at 30 days minimum) (Colo-26 tumour; [7]): 30 % of mice | Regrowth to 20 Vo (time for tumour to reach 20 times the volume at the time of PDT) (Colo-26 tumour; Colo-26 tumour, 2 μmol kg-1 i.v., PDT 24 h p.i., non-cured mice only, controls 15.0 (0.3)): 23.5 (2.1) days (s.e.m.) | Oedema observed 24 h after PDT (EMT-6 tumour): + | Tumour response, Cure (complete tumour regression at 21 days) (EMT-6 tumour): 100 % of mice | Tumour response, Regression (flat and necrotic within 3-5 days after PDT) (EMT-6 tumour): 100 % of mice
